Source: patent US20130209578A1, “Combinatory Cancer Treatment” (UNIVERSITE DE MONTREAL, priority 2010, published 2013)
Entries after “also recorded” stand apart in the source; their conditions may differ.

Experiments:
primary AML specimens = assay: colony forming assay in methyl cellulose, primary AML specimens; format: cell-based, human; settings: Flt3 mutant versus Flt3 wildtype specimens, drug alone
Excerpt: (§1) FIG. 1 is a table summarizing the results of colony forming assays in methyl cellulose for primary AML specimens (purchased from the BLCQ) or specimens isolated from healthy volunteers (purchased from Stem Cell Technologies). A colony experiment typically runs for 14 days. A special media which supports hematopoietic cell growth was used (Methocult purchased from Stem Cell Technologies). Mutant refers to the presence of a mutation in the Flt3 gene (a common leukemia marker) and wildtype refers to Flt3 not being mutated in this specimen. Each experiment is carried out in quintuplicate with colony number plus/minus standard deviations given. […] Untreated controls were carried out in parallel for every single experiment. Experiments were done on specimens as described.

KG-1a cells = assay: western blot of eIF4E targets, apoptosis and autophagy markers in KG-1a cells; format: cell-based, human; settings: for Akt activation / LC3B level and cleavage (autophagy marker) / levels of eIF4E downstream targets XIAP, Mdm2, Mcl-1: KG1 cells; for levels of eIF4E downstream targets XIAP, Mdm2, Mcl-1: ribavirin 10 μM, azacytidine 3 μM
[1] = tested on: M1 AML specimen with elevated eIF4E (M1-high4E); assay: methyl-cellulose colony assay, M1 AML specimen with elevated eIF4E; format: cell-based, human; settings: ribavirin 1 micromolar, azacytidine 3 micromolar
Excerpt: as §1

THP-1 cells = assay: western blot of eIF4E targets, apoptosis and autophagy markers in THP-1 cells; format: cell-based, human; settings: for HoxA9 protein levels: FIG. 7
[2] = tested on: M1 and M2 AML specimens (with normal eIF4E levels); assay: methyl-cellulose colony assay, M1 and M2 AML specimens with normal eIF4E; format: cell-based, human; settings: ribavirin 1 micromolar
Excerpt: as §1

purified eIF4E = settings: cited from earlier work
[3] = Assouline et al, Blood 2009; cited from earlier work
eIF4E = biological target: T1, eIF4E (Homo sapiens, UniProt P06730); assay: 3H ribavirin immunoprecipitation with eIF4E antibodies in FaDu cells; format: binding; settings: 24 h, 0.66 micromolar 3H ribavirin, formaldehyde cross-linked
T1 construct: endogenous in cells; host or cells: FaDu cells
T1 sequence (P06730 whole entry): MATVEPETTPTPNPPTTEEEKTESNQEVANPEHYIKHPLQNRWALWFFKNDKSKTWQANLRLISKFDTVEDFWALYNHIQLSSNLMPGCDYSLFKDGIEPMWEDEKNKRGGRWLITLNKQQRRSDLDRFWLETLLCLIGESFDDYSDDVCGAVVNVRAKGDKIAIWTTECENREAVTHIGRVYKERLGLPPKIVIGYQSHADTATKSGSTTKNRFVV
Excerpt: Equal amounts of lysate were used for immunoprecipitation with antibodies to eIF4E or IgG controls. After 6 washes (W), beads were eluted in SDS Buffer. ⅕ of volume was used for western blot analysis and the rest for ^3H measurement. […] Input is a positive control showing that eIF4E is present in the cell lysate.
FIG. 3 is a western blot control for FIG. 2. This western blot confirms that antibodies to eIF4E immunoprecipitated eIF4E and that eIF4E was not found in the IgG control immunoprecipitation.

[4] = tested on: acute myeloid leukemia (AML); assay: phase II clinical trial of ribavirin monotherapy in leukemia (AML) patients, NCT00559091; format: in vivo, human
Excerpt: Thus, because of its properties, the eukaryotic translation initiation factor, eIF4E, has become an appealing clinical target to treat patients diagnosed with cancer, in particular AML. […] 114, no. 2 (Jul. 9, 2009, Epub 2009 May 11).
In conducting clinical trial no. […] In some patients, monotherapy had no impact. […] In fact, leukemic cells become resistant to nearly all monotherapies within two (2) to four (4) months; such being due to naturally occurring phenomena such as selective evolution (Abboud et al., “Induction therapy for elderly patients with acute myeloid leukemia”, Blood Reviews (2008) 22: 311-320, and Melnick et al., “MDS and secondary AML display unique patterns and abundance of aberrant DNA methylation”, Blood. 2009 Oct. 15; 114(16):3448-58. Epub 2009 Aug. 3). To overcome this issue of resistance, it is not uncommon in the clinical field, and as for most treatments involving a monotherapy, to follow-up this treatment with chemotherapy, as it taught in Abboud et al. (supra) and Melnick et al. (supra). As it is well known, the use of chemotherapeutic agents has many secondary effects on patients, including and not limited to damage of normal cells, anemia, bleeding, constipation, fatigue, hair loss, infections, memory changes, swelling, and even death amongst many others. Conventional chemotherapy also requires a stay at the hospital so as to administer the chemotherapeutic agent(s) as well as supportive care for the side effects. In this connection, Abboud et al., in Blood Reviews (2008, supra), review treatment strategies of patients over 60 (which are the majority of AML patients), diagnosed with AML, and the morbidities and mortalities associated with chemotherapy.
Ribavirin was used extensively as a broad-spectrum anti-viral therapy.

SMILES | dependence of the effect on colony growth on Flt3 status (primary AML specimens) | levels of NFkappaB subunit p65 (KG-1a cells; FIG. 6) | Akt activation (KG-1a cells) | LC3B level and cleavage (autophagy marker) (KG-1a cells) | levels of eIF4E downstream targets XIAP, Mdm2, Mcl-1 (KG-1a cells) | colonies versus untreated controls [1] | HoxA9 protein levels (THP-1 cells) | levels of eIF4E downstream targets XIAP, mdm2, Mcl-1 (THP-1 cells; THP-1 cells) | colonies versus untreated cells [2] | drop in colonies versus untreated cells [2] [%] | eIF4E protein levels (KG-1a cells; KG-1a and THP-1 cells, ribavirin 48 hours) | mdm2 protein level (eIF4E mRNA export target) (KG-1a cells; KG-1a cells, 48 hours) | Kd (purified eIF4E; Kentsis 2004, read-out: affinity constant for eIF4E) [nM] | Kd for purified eIF4E in vitro (purified eIF4E; Kentsis et al. 2004) | concentration in plasma from patients [3] [µM] | binding of 3H ribavirin to eIF4E in living cells (eIF4E) | clinical response of patients ([4]; Canada-wide clinical trial) | resistance to monotherapy in patients ([4]; clinical trial no. NCT00559091) | eIF4E protein (and RNA) levels in patients ([4]; phase II clinical trial, ribavirin monotherapy) | mdm2 protein level (eIF4E mRNA export target) (THP-1 cells; THP-1 cells, 48 hours)
Nc1ncn([C@@H]2O[C@H](CO)[C@@H](O)[C@H]2O)c(=O)n1 [azacytidine, 4-amino-1-β-D-ribofuranosyl-1,3,5-triazin-2(1H)-one] | independent of Flt3 status | elevated | leads to Akt activation | increases the total amount of LC3B protein | gross increase; also recorded: upregulated | about 80% | elevates | upregulated; also recorded: elevated |  |  |  |  |  |  |  |  |  |  |  | 
NC(=O)c1ncn([C@@H]2O[C@H](CO)[C@@H](O)[C@H]2O)n1 [ribavirin, 1-[(2R,3R,4S,5R)-3,4-dihydroxy-5-(hydroxymethyl)oxolan-2-yl]-1H-1,2,4-triazole-3-carboxamide] | independent of Flt3 status |  | reduces Akt activation | elevated LC3B levels | reduced the expression |  | does not reverse this |  | 70-80% | ~25 | do not change | downregulated | ~1000 | low micromolar range | 10 to 20 | binds directly to eIF4E in living cells; also recorded: eIF4E binds ^3H ribavirin | striking improvement | most if not all patients became resistant; also recorded: all eventually developed resistance | downregulation | downregulated
